According to PubChem BioAssay (NCI):
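Assay format: 96-well plates, 48-hour exposure. Definition used: TGI = concentration required for complete inhibition of growth.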

Experiments:
Assay in all cases: growth of human tumour cells (NCI), 48 h
[1] = system: 786-0 renal
[2] = system: A498 renal
[3] = system: HCT-15 colon
[4] = system: HL-60(TB) leukemia
[5] = system: HOP-62 NSCLC
[6] = system: MOLT-4 leukemia
[7] = system: NCI/ADR-RES ovarian
[8] = system: OVCAR-8 ovarian
[9] = system: SN12C renal
[10] = system: SR leukemia
[11] = system: UACC-62 melanoma
[12] = system: NCI-H23 lung
[13] = system: SK-MEL-5 melanoma

## CC12OC3(C(O)C1O)C(C(=O)O[C@H]3CO[Si](C)(C)C(C)(C)C)C2S(=O)(=O)c1ccccc1 (some centres not stated)
[1]
  TGI: > 100 µM
[2]
  TGI: > 100 µM
[3]
  TGI: 89.6 µM
[4]
  TGI: 67.9 µM
[5]
  TGI: > 100 µM
[6]
  TGI: 55.7 µM
[7]
  TGI: 30.4 µM
[8]
  TGI: > 100 µM
[9]
  TGI: > 100 µM
[10]
  TGI: 87.5 µM
[11]
  TGI: 36 µM

## C=CCN1C(=O)/C(=C/c2ccccc2)N=C1SC1OC(COC(C)=O)C(OC(C)=O)C(OC(C)=O)C1OC(C)=O (configuration not stated)
[1]
  TGI: > 100 µM
[2]
  TGI: 99.7 µM
[3]
  TGI: > 100 µM
[4]
  TGI: 60.6 µM
[5]
  TGI: > 100 µM
[6]
  TGI: > 100 µM
[12]
  TGI: 87.6 µM
[7]
  TGI: 69.4 µM
[8]
  TGI: 95.5 µM
[9]
  TGI: 71.3 µM
[10]
  TGI: > 100 µM
[11]
  TGI: 52.4 µM

## S=C1NCCN1C(=S)NC1CCCCC1
[1]
  TGI: > 100 µM
[2]
  TGI: 38.7 µM
[3]
  TGI: 89.7 µM
[4]
  TGI: 96.7 µM
[5]
  TGI: > 100 µM
[6]
  TGI: > 100 µM
[12]
  TGI: 59.2 µM
[7]
  TGI: > 100 µM
[8]
  TGI: > 100 µM
[13]
  TGI: 50.7 µM
[9]
  TGI: > 100 µM
[10]
  TGI: > 100 µM
[11]
  TGI: 96.5 µM

## COC(=O)CCN1CCN(CCO)CC1C (configuration not stated)
[1]
  TGI: > 10 µM
[2]
  TGI: > 10 µM
[3]
  TGI: > 10 µM
[4]
  TGI: > 10 µM
[5]
  TGI: > 10 µM
[6]
  TGI: > 10 µM
[12]
  TGI: > 10 µM
[7]
  TGI: > 10 µM
[8]
  TGI: > 10 µM
[13]
  TGI: > 10 µM
[9]
  TGI: > 10 µM
[10]
  TGI: > 10 µM
[11]
  TGI: > 10 µM

## COC(=O)c1ccc(-n2c(C)nc(=O)c(-c3ccccc3)c2C)cc1
[1]
  TGI: > 100 µM
[2]
  TGI: > 100 µM
[3]
  TGI: > 100 µM
[4]
  TGI: > 100 µM
[5]
  TGI: > 100 µM
[6]
  TGI: > 100 µM
[12]
  TGI: > 100 µM
[7]
  TGI: > 100 µM
[8]
  TGI: > 100 µM
[13]
  TGI: > 100 µM
[9]
  TGI: > 100 µM
[10]
  TGI: > 100 µM

## CC(C)CNC(=O)c1c(NC(=O)c2ccccc2)sc2[nH]c(=O)n(-c3ccccc3)c(=O)c12
[1]
  TGI: 53.6 µM
[2]
  TGI: > 71.2 µM
[3]
  TGI: > 100 µM
[4]
  TGI: > 100 µM
[5]
  TGI: 49.1 µM
[6]
  TGI: > 100 µM
[12]
  TGI: > 100 µM
[7]
  TGI: > 100 µM
[8]
  TGI: > 100 µM
[13]
  TGI: > 100 µM
[9]
  TGI: > 100 µM
[10]
  TGI: > 90.7 µM
[11]
  TGI: > 100 µM

## COc1cc(CCC(=O)O)c2cc3ccccc3cc2c1O
[1]
  TGI: 30.4 µM
[2]
  TGI: 99.5 µM
[3]
  TGI: 43.9 µM
[4]
  TGI: 39.1 µM
[5]
  TGI: 32.7 µM
[6]
  TGI: 21.9 µM
[12]
  TGI: 51.6 µM
[7]
  TGI: 80.7 µM
[8]
  TGI: 30.6 µM
[13]
  TGI: 28.4 µM
[9]
  TGI: 31.7 µM
[10]
  TGI: 33.1 µM
[11]
  TGI: 37.7 µM

## Cc1ccc(S(=O)(=O)N/N=C2/C3C(CC2(C)C)C2(C)CCCC3(C)C2O)cc1 (configuration not stated)
[1]
  TGI: 45.3 µM
[3]
  TGI: 60 µM
[4]
  TGI: > 100 µM
[5]
  TGI: > 100 µM
[6]
  TGI: 57.6 µM
[12]
  TGI: 42.8 µM
[7]
  TGI: 94.6 µM
[8]
  TGI: > 100 µM
[13]
  TGI: 28.8 µM
[9]
  TGI: 36.5 µM
[10]
  TGI: > 100 µM
[11]
  TGI: 30 µM

## CSC1=N/C(=C\c2ccccc2)C(=O)N1CN1CCOCC1
[1]
  TGI: > 100 µM
[2]
  TGI: > 100 µM
[3]
  TGI: > 100 µM
[4]
  TGI: > 100 µM
[5]
  TGI: > 100 µM
[6]
  TGI: > 100 µM
[12]
  TGI: > 100 µM
[7]
  TGI: > 100 µM
[8]
  TGI: > 100 µM
[13]
  TGI: > 100 µM
[9]
  TGI: > 100 µM
[10]
  TGI: > 100 µM
[11]
  TGI: > 100 µM
